{
  "source": "ChEMBL document CHEMBL5244212",
  "about": "“Recent advances in the rational design and development of LIM kinase inhibitors are not enough to enter clinical trials” (Eur J Med Chem, 2018)",
  "key": {"LIM domain kinase 2 [1]": {"target": "T1, LIM domain kinase 2 (Homo sapiens, UniProt P53671)", "T1 sequence (P53671 whole entry, the tested form may be a part)": "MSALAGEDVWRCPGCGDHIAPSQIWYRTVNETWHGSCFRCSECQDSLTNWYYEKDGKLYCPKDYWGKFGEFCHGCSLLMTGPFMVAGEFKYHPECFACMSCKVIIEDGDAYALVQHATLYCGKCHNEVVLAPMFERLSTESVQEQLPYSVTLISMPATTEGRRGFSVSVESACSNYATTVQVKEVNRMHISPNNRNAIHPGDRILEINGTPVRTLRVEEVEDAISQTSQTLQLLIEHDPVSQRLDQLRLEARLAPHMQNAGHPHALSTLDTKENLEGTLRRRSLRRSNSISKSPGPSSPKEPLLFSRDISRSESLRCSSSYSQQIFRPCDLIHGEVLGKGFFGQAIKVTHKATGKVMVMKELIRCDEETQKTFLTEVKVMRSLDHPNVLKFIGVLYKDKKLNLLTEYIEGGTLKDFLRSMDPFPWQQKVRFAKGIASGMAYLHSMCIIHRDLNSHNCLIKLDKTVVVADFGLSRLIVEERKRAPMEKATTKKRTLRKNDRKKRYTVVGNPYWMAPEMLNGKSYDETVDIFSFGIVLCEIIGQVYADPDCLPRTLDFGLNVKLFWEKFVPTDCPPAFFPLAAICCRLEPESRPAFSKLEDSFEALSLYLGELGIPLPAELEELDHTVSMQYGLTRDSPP", "test": "Inhibition of LIMK2 (unknown origin)"}, "PANC-1 [2]": {"test_system": "PANC-1", "test": "Cytotoxicity against human PANC-1 cells assessed as reduction in cell growth relative to control", "format": "functional", "set-up": "scale not given: the % may be the effect or the level left"}, "PANC-1 [3]": {"test_system": "PANC-1", "test": "Anti-tumor activity against human PANC-1 cells xenografted in athymic nude mouse assessed as reduction in tumor growth at 100 mg/kg, ip measured after 35 days relative to control", "format": "functional", "set-up": "scale not given: the % may be the effect or the level left", "conditions": "time 35 day"}, "[4]": {"test": "Inhibition of AbI (unknown origin)", "set-up": "species or system Homo sapiens"}, "MDA-MB-231": {"test_system": "MDA-MB-231", "test": "Cytotoxicity against human MDA-MB-231 cells assessed as reduction in cell viability incubated for 96 hrs at 3 uM by MTT method relative to control", "format": "functional"}, "[5]": {"target": "cAMP-dependent protein kinase (PKA) (Homo sapiens) (UniProt P22694+P17612+P22612)", "test": "Inhibition of PKA (unknown origin) assessed as fold increase", "format": "protein assay"}, "Homo sapiens": {"species": "Homo sapiens", "test": "Selectivity index, ratio of IC50 for ROCK2 (unknown origin) to IC50 for PKA (unknown origin)"}, "LIM domain kinase 2 [6]": {"target": "T1, LIM domain kinase 2", "test": "Inhibition of LIMK2 (unknown origin) in presence of ATP at 25 uM"}, "Mus musculus": {"species": "Mus musculus", "test": "Antiglaucoma activity in ocular […] mouse assessed as reduction in intraocular pressure at 15 ug measured after 4 hrs", "format": "functional", "conditions": "dose 15 µg"}, "[7]": {"test_system": "Human immunodeficiency virus", "test": "Antiviral activity against HIV at 100 uM relative to control", "format": "functional"}, "[8]": {"test_system": "Human immunodeficiency virus", "test": "Antiviral activity against HIV at 10 uM relative to control", "format": "functional"}, "[9]": {"test_system": "Human immunodeficiency virus", "test": "Antiviral activity against HIV at 1 uM relative to control", "format": "functional"}, "LIM domain kinase 1 [10]": {"target": "T2, LIM domain kinase 1 (Homo sapiens, UniProt P53667)", "test": "Inhibition of human LIMK1 (321 to 647 residues) expressed in Sf9 cells using […] as substrate incubated for 30 mins by micro-scintillation fluid method"}, "LIM domain kinase 1 [11]": {"target": "T2, LIM domain kinase 1", "test": "Inhibition of human LIMK1 (312 to 638 residues) expressed in Sf9 cells using […] as substrate incubated for 30 mins by micro-scintillation fluid method"}, "[12]": {"target": "Rho-associated protein kinase 2 (Homo sapiens, UniProt O75116)", "sequence (O75116 whole entry)": "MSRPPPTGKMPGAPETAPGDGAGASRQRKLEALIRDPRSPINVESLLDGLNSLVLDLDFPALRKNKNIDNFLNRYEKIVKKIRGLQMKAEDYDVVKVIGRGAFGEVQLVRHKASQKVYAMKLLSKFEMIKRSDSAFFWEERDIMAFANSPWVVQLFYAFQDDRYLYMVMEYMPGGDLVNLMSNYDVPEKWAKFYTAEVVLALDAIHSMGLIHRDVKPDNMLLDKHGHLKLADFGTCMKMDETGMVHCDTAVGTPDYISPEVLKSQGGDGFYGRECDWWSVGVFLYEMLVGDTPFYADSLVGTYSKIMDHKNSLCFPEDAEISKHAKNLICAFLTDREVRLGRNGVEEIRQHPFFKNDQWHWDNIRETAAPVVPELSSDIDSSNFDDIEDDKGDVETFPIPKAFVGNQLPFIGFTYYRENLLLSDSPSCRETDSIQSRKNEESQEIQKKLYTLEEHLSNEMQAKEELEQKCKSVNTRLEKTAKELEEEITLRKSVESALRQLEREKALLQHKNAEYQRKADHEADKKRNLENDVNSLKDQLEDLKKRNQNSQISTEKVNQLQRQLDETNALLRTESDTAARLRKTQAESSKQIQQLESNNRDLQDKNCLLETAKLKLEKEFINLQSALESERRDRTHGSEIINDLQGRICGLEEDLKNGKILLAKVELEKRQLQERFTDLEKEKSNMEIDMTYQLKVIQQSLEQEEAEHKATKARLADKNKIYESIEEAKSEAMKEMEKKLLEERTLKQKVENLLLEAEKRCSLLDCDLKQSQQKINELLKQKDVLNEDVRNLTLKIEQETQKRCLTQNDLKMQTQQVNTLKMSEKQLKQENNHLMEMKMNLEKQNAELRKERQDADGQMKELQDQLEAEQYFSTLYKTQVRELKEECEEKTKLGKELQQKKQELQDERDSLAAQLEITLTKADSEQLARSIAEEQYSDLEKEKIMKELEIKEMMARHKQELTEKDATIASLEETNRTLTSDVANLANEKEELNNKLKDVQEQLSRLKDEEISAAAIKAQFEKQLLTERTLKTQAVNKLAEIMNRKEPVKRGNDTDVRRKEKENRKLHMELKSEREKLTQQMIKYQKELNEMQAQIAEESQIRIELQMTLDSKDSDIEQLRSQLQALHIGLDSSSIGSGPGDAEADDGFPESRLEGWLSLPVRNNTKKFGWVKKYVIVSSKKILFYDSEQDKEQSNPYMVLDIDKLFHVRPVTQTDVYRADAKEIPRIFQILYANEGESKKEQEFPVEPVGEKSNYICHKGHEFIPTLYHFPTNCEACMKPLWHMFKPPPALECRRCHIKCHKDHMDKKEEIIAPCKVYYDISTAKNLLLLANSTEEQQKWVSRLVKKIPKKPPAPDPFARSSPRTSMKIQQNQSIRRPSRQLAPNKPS", "test": "Inhibition of human recombinant ROCK2 by ADP glo kinase assay"}, "LIM domain kinase 1 [13]": {"target": "T2, LIM domain kinase 1", "test": "Inhibition of LIMK1 (unknown origin)"}, "LIM domain kinase 1 [14]": {"target": "T2, LIM domain kinase 1", "test": "Inhibition of LIMK1 (unknown origin) phosphorylation of cofilin"}, "[15]": {"test": "Half life in rat, iv at 1 mg/kg", "format": "ADME, organism-based", "conditions": "in vivo"}, "LIM domain kinase 2 [16]": {"target": "T1, LIM domain kinase 2", "test": "Inhibition of LIMK2 (unknown origin) in presence of ATP at 200 uM"}, "cells": {"test": "cells", "conditions": "Mus musculus, NF-1", "description": "Cytotoxicity against mouse NF-1 cells assessed as reduction in cell growth"}, "LIM domain kinase 1 [17]": {"target": "T2, LIM domain kinase 1", "test": "Inhibition of human recombinant LIMK1"}, "LIM domain kinase 2 [18]": {"target": "T1, LIM domain kinase 2", "test": "Inhibition of human recombinant LIMK2"}},
  "data": [
    {"smiles": "CN(C)C1(C(=O)Nc2cccc(-c3ccccc3)c2)CCN(c2ncnc3[nH]c4c(c23)CCCC4)CC1", "values": [
      {"measurement": "IC50", "setting": "LIM domain kinase 2 [1]", "result": 0.1, "unit": "nM"}
    ]},
    {"smiles": "Cc1cc(C(=O)Nc2cccc(C(=O)Nc3cccc(C(F)(F)F)c3)c2)on1", "values": [
      {"measurement": "Activity", "setting": "PANC-1 [2]", "result": 46, "unit": "%"},
      {"measurement": "Activity", "setting": "PANC-1 [3]", "result": 80, "unit": "%"}
    ]},
    {"smiles": "CN(Cc1ccccc1)C(=O)c1ccc(S(=O)(=O)Nc2ccccc2)cc1", "values": [
      {"measurement": "IC50", "setting": "[4]", "result": 6, "unit": "nM"}
    ]},
    {"smiles": "Cc1ccc(-c2cnccc2-c2cnc(Nc3ccc(O)cc3)s2)c(Cl)c1", "values": [
      {"measurement": "Activity", "setting": "MDA-MB-231", "result": 96, "unit": "%"}
    ]},
    {"smiles": "CN(C)C(=O)Oc1cccc(NC(=O)C2(CN)CCN(c3ncnc4[nH]c5c(c34)CCCC5)CC2)c1", "values": [
      {"measurement": "fold change (FC)", "setting": "[5]", "result": 0.7},
      {"measurement": "Selectivity Index", "setting": "Homo sapiens", "result": 1}
    ]},
    {"smiles": "Cc1c[nH]c2ncnc(N3CCC(C(=O)Nc4cccc(OC(=O)N(C)C)c4)[C@@H](C)C3)c12", "note": "(some centres not stated)", "values": [
      {"measurement": "IC50", "setting": "LIM domain kinase 2 [6]", "result": 110, "unit": "nM"}
    ]},
    {"smiles": "O=C(CC1CCCN1)Nc1ncc(-c2cc(C(F)F)nn2-c2c(Cl)cccc2Cl)s1", "note": "(configuration not stated)", "values": [
      {"measurement": "Activity", "setting": "Mus musculus", "result": 5, "unit": "mmHg"}
    ]},
    {"smiles": "COC(=O)c1ccc2[nH]c(C3CCN(c4ncnc5[nH]cc(Cl)c45)CC3)nc2c1", "values": [
      {"measurement": "Activity", "setting": "[7]", "result": 80, "unit": "%"},
      {"measurement": "Activity", "setting": "[8]", "result": 70, "unit": "%"},
      {"measurement": "Activity", "setting": "[9]", "result": 50, "unit": "%"}
    ]},
    {"smiles": "O=C(Nc1ncc(-c2cc(C(F)F)nn2-c2c(Cl)cccc2Cl)s1)C1CC1", "values": [
      {"measurement": "IC50", "setting": "LIM domain kinase 1 [10]", "result": 5, "unit": "nM"},
      {"measurement": "IC50", "setting": "LIM domain kinase 1 [11]", "result": 6, "unit": "nM"}
    ]},
    {"smiles": "Cc1c[nH]c2ncnc(-c3ccc(NC(=O)Nc4cccc(C(=O)NC(C)C)c4)cc3F)c12", "values": [
      {"measurement": "IC50", "setting": "[12]", "result": 18, "unit": "nM"}
    ]},
    {"smiles": "COc1cc(-c2nn(C3CCC(N4CCN(C)CC4)CC3)c3ncnc(N)c23)ccc1NC(=O)OCc1ccccc1", "note": "(configuration not stated)", "values": [
      {"measurement": "IC50", "setting": "LIM domain kinase 2 [1]", "result": 800, "unit": "nM"},
      {"measurement": "IC50", "setting": "LIM domain kinase 1 [13]", "result": 900, "unit": "nM"}
    ]},
    {"smiles": "COCCN(C(=O)Nc1ccc(-c2ncnc3[nH]c(C)c(C)c23)c(F)c1)c1ccc(Cl)cc1", "values": [
      {"measurement": "IC50", "setting": "LIM domain kinase 1 [14]", "result": 8, "unit": "nM"}
    ]},
    {"smiles": "Cc1c[nH]c2ncnc(-c3ccc(NC(=O)N(CCN(C)C)c4ccc(Cl)cc4)cc3)c12", "values": [
      {"measurement": "half-life", "setting": "[15]", "result": 6, "unit": "h"}
    ]},
    {"smiles": "CC(C)CNc1ncc(-c2ccncc2-c2ccccc2Cl)s1", "values": [
      {"measurement": "Activity", "setting": "MDA-MB-231", "result": 70, "unit": "%"}
    ]},
    {"smiles": "COC(=O)Cc1cccc(NC(=O)C2(CN)CCN(c3ncnc4[nH]c5c(c34)CC(F)CC5)CC2)c1", "note": "(configuration not stated)", "values": [
      {"measurement": "IC50", "setting": "LIM domain kinase 2 [16]", "result": "< 0.1", "unit": "nM"}
    ]},
    {"smiles": "CC(C)C(=O)Nc1ncc(-c2cc(C(F)F)nn2-c2c(Cl)cccc2Cl)s1", "values": [
      {"measurement": "EC50", "setting": "cells", "result": 30000, "unit": "nM"}
    ]},
    {"smiles": "Cc1c[nH]c2ncnc(N3CCN(C(=O)Nc4cccc(OC(=O)N(C)C)c4)[C@@H](C)C3)c12", "values": [
      {"measurement": "Activity", "setting": "Mus musculus", "result": 3, "unit": "mmHg"}
    ]},
    {"smiles": "Cc1c2cc[nH]c(=O)c2c(C)c2c1[nH]c1ccc(OC(=O)c3ccccc3)cc12", "values": [
      {"measurement": "IC50", "setting": "LIM domain kinase 1 [17]", "result": 50, "unit": "nM"},
      {"measurement": "IC50", "setting": "LIM domain kinase 2 [18]", "result": 75, "unit": "nM"}
    ]},
    {"smiles": "Cc1c[nH]c2ncnc(N3CCC(C(=O)Nc4cccc(OC(=O)N(C)C)c4)C(C)C3)c12", "note": "(configuration not stated)", "values": [
      {"measurement": "IC50", "setting": "LIM domain kinase 2 [6]", "result": 210, "unit": "nM"}
    ]},
    {"smiles": "Cc1[nH]c2ncnc(N3CCC(CN)(C(=O)Nc4cccc(OC(=O)N(C)C)c4)CC3)c2c1C", "values": [
      {"measurement": "IC50", "setting": "LIM domain kinase 1 [13]", "result": 23, "unit": "nM"}
    ]}
  ]
}
